Article PMC12671136, “Antimicrobial peptides disrupting the bacterial membrane reduce Salmonella colonization in chickens” (Microbiology Spectrum, 2025)
Converted amounts (≈) assume the structure as drawn. Peptide text beside a SMILES is read from it.

What was measured:
Format in all cases: cell-based
[1] = test system: Salmonella Typhimurium (ST); settings: for MIC: murium (ST, 12 h)
Description: (§1) The inhibitory effect of the peptides was assessed as described previously ([23]). ST was grown overnight and adjusted to 5 × 10^5 CFU/ml, and 100 µL of this measured concentration was placed into the wells of a 96-well plate. Peptides P1–P6 were added to the well at 12 mM concentration, and the plate was incubated in a TECAN Sunrise^TM absorbance microplate reader at 37°C, with kinetic absorbance measurements taken every 30 min for 12 h. The growth inhibitory activity was calculated with the formula (OD600 DMSO-treated well − OD600 peptide-treated well)/OD600 DMSO-treated well × 100%. Wells treated with DMSO and containing Salmonella, as well as sterile media wells without Salmonella, were used as controls. At least two independent experiments were conducted.
(§2) MIC was determined as the peptide concentration at which no increase in growth (no increase in OD) was observed, indicating complete inhibition of ST growth. Additionally, to test the efficacy of peptides against another serovar, the assay was conducted using SE, with peptides added at 15 mM and 18 mM concentrations. Following incubation (37°C, 12 h), cultures were plated on the LB agar plate to confirm the bactericidal effect. At least two independent experiments were conducted.
(§3) To analyze the perceived efficacy of arginine and lysine substitutes reported in previous studies ([36], [37]), specific amino acid residues in P1 and P2 were replaced with lysine or arginine and tested if the substitutions enhanced anti-Salmonella (ST and SE) activity. The MICs of the arginine or lysine substituted peptides ([…], […], […], KDENK, PDEKK, KDEKK) were determined as described above. At least two independent experiments were conducted.

[2] = test system: Salmonella Enteritidis (SE); settings: 12 h
Description: as §1, §2, §3

[3] = test system: Salmonella Albany
Description: (§4) To further test the spectrum of the peptides’ anti-Salmonella capabilities, eight additional Salmonella serovars commonly implicated in foodborne illness (S. Anatum, S. Albany, S. Brenderup, S. Javiana, S. Heidelberg, S. Muenchen, S. Newport, S. Saintpaul) were investigated (Table S1). P1, P2, and P4 (selected based on dose-response assay results) were added to the assay at their MICs to determine their effect on different serovars. Inhibition was determined using the criteria described above.

[4] = test system: Salmonella Muenchen
Description: as §4

[5] = test system: Salmonella Heidelberg
Description: as §4

[6] = test system: Salmonella Brenderup
Description: as §4

[7] = test system: Salmonella Newport
Description: as §4

[8] = test system: Salmonella Javiana
Description: as §4

[9] = test system: Salmonella Anatum
Description: as §4

[10] = test system: Salmonella Saintpaul
Description: as §4

[11] = test system: Salmonella Typhimurium (ST); settings: murium (ST)
Description: (§5) P1, P2, and P4 were heated for 6 min at 86°C ([21]) or treated with protease proteinase K (200 µg/ml) at 50°C for 30 min ([26]). Afterward, the treated and/or heated peptides at their respective MICs were evaluated in the inhibition assay with Salmonella. The protocol from above using the TECAN microplate reader was followed with the same controls.

[12] = test system: Salmonella Enteritidis (SE)
Description: as §5

| SMILES | MIC [1] [mM] | MIC [2] [mM] | Efficacy against Salmonella Albany (concentration inhibiting completely, MIC) [3] [mM] | Efficacy against Salmonella Muenchen (concentration inhibiting completely, MIC) [4] [mM] | Efficacy against Salmonella Heidelberg (concentration inhibiting completely, MIC) [5] [mM] | Efficacy against Salmonella Brenderup (concentration inhibiting completely, MIC) [6] [mM] | Efficacy against Salmonella Newport (concentration inhibiting completely, MIC) [7] [mM] | Efficacy against Salmonella Javiana (concentration inhibiting completely, MIC) [8] [mM] | Efficacy against Salmonella Anatum (concentration inhibiting completely, MIC) [9] [mM] | Efficacy against Salmonella Saintpaul (concentration inhibiting completely, MIC) [10] [mM] | MIC (mM) against ST, Heat treatment [11] [mM] | MIC (mM) against ST, Protease treatment [11] [mM] | MIC (mM) against SE, Heat treatment [12] [mM] | MIC (mM) against SE, Protease treatment [12] [mM] | MIC (mM) against SE, No treatment [2] [mM] | other results |
| --- | --- | --- | --- | --- | --- | --- | --- | --- | --- | --- | --- | --- | --- | --- | --- | --- |
| N=C(N)NCCC[C@H](NC(=O)[C@H](CCCNC(=N)N)NC(=O)[C@H](CCC(=O)O)NC(=O)[C@H](CCC(N)=O)NC(=O)[C@H](CCCNC(=N)N)NC(=O)[C@H](CCCNC(=N)N)NC(=O)[C@@H]1CCCN1C(=O)[C@@H](N)CC(N)=O)C(=O)O (H-NPRRQERR-OH) | 15 (≈ 16.7 mg/mL) | 18 (≈ 20 mg/mL) |  |  |  |  |  |  |  |  |  |  |  |  |  |  |
| N=C(N)NCCC[C@H](NC(=O)[C@H](CCCNC(=N)N)NC(=O)[C@H](CCC(=O)O)NC(=O)[C@H](CCCNC(=N)N)NC(=O)[C@H](CCCNC(=N)N)NC(=O)[C@H](CCCNC(=N)N)NC(=O)[C@@H]1CCCN1C(=O)[C@@H](N)CC(N)=O)C(=O)O (H-NPRRRERR-OH) | 15 (≈ 17.1 mg/mL) | >18 |  |  |  |  |  |  |  |  |  |  |  |  |  |  |
| N=C(N)NCCC[C@H](NC(=O)[C@H](CCCNC(=N)N)NC(=O)[C@H](CCC(=O)O)NC(=O)[C@H](CCCNC(=N)N)NC(=O)[C@H](CCCNC(=N)N)NC(=O)[C@H](CO)NC(=O)[C@@H]1CCCN1C(=O)[C@@H](N)CC(N)=O)C(=O)O (H-NPSRRERR-OH) | >18 | >18 |  |  |  |  |  |  |  |  |  |  |  |  |  |  |
| NCCCC[C@H](NC(=O)[C@H](CCCCN)NC(=O)[C@H](CCC(=O)O)NC(=O)[C@H](CC(=O)O)NC(=O)[C@@H](N)CCCCN)C(=O)O [KDEKK] (H-KDEKK-OH) | 15 (≈ 9.7 mg/mL) | 15 (≈ 9.7 mg/mL) |  |  |  |  |  |  |  |  |  |  |  |  |  |  |
| NCCCC[C@H](NC(=O)[C@H](CC(N)=O)NC(=O)[C@H](CCC(=O)O)NC(=O)[C@H](CC(=O)O)NC(=O)[C@@H](N)CCCCN)C(=O)O [KDENK] (H-KDENK-OH) | 12 (≈ 7.59 mg/mL) | 12 (≈ 7.59 mg/mL) |  |  |  |  |  |  |  |  |  |  |  |  |  |  |
| NCCCC[C@H](NC(=O)[C@H](CCCCN)NC(=O)[C@H](CCC(=O)O)NC(=O)[C@H](CC(=O)O)NC(=O)[C@@H]1CCCN1)C(=O)O [PDEKK] (H-PDEKK-OH) | 15 (≈ 9.24 mg/mL) |  |  |  |  |  |  |  |  |  |  |  |  |  |  |  |
| CC(C)[C@H](N)C(=O)N[C@@H](Cc1c[nH]cn1)C(=O)N[C@H](C(=O)N[C@@H](C)C(=O)N1CCC[C@H]1C(=O)N[C@@H](CCCCN)C(=O)O)[C@@H](C)O [Peptide P3] (H-VHTAPK-OH; N-terminus and C-terminus assumed) |  |  |  |  |  |  |  |  |  |  |  |  |  |  |  | Complete inhibition of ST growth ([1]; peptide 6, 12, 15 and 18 mM, 12 h, 37°C): Neither P3 nor P4 completely inhibited ST |

Further lines, with some results ahead:

| MIC [1] [mM] | MIC [2] [mM] | Efficacy against Salmonella Albany (concentration inhibiting completely, MIC) [3] [mM] | Efficacy against Salmonella Muenchen (concentration inhibiting completely, MIC) [4] [mM] | Efficacy against Salmonella Heidelberg (concentration inhibiting completely, MIC) [5] [mM] | Efficacy against Salmonella Brenderup (concentration inhibiting completely, MIC) [6] [mM] | Efficacy against Salmonella Newport (concentration inhibiting completely, MIC) [7] [mM] | Efficacy against Salmonella Javiana (concentration inhibiting completely, MIC) [8] [mM] | Efficacy against Salmonella Anatum (concentration inhibiting completely, MIC) [9] [mM] | Efficacy against Salmonella Saintpaul (concentration inhibiting completely, MIC) [10] [mM] | MIC (mM) against ST, Heat treatment [11] [mM] | MIC (mM) against ST, Protease treatment [11] [mM] | MIC (mM) against SE, Heat treatment [12] [mM] | MIC (mM) against SE, Protease treatment [12] [mM] | MIC (mM) against SE, No treatment [2] [mM] | SMILES | other results |
| --- | --- | --- | --- | --- | --- | --- | --- | --- | --- | --- | --- | --- | --- | --- | --- | --- |
|  |  | 18 | 18 | 18 | 18 | 18 | 18 | 18 | 18 | 18 (≈ 18.8 mg/mL) | 18 (≈ 18.8 mg/mL) | 18 (≈ 18.8 mg/mL) | 18 (≈ 18.8 mg/mL) | 18 (≈ 18.8 mg/mL) | N=C(N)NCCC[C@H](NC(=O)[C@H](CCCNC(=N)N)NC(=O)[C@H](CCC(=O)O)NC(=O)[C@H](CCC(N)=O)NC(=O)[C@H](CCCNC(=N)N)NC(=O)[C@H](CO)NC(=O)[C@@H]1CCCN1C(=O)[C@@H](N)CC(N)=O)C(=O)O [Peptide P1] (H-NPSRQERR-OH) |  |
|  |  | 15 | 15 | 15 | 15 | 15 | 15 | 15 | 15 | 15 (≈ 9.02 mg/mL) | 15 (≈ 9.02 mg/mL) | 15 (≈ 9.02 mg/mL) | 15 (≈ 9.02 mg/mL) | 15 (≈ 9.02 mg/mL) | NCCCC[C@H](NC(=O)[C@H](CC(N)=O)NC(=O)[C@H](CCC(=O)O)NC(=O)[C@H](CC(=O)O)NC(=O)[C@@H]1CCCN1)C(=O)O [Peptide P2] (H-PDENK-OH) |  |
|  |  | 18 | 18 | 18 | 18 | 18 | 18 | 18 | 18 | 18 (≈ 16 mg/mL) | 18 (≈ 16 mg/mL) | 18 (≈ 16 mg/mL) | 18 (≈ 16 mg/mL) | 18 (≈ 16 mg/mL) | CSCC[C@H](N)C(=O)N[C@@H](CC(C)C)C(=O)N[C@@H](CC(N)=O)C(=O)N[C@@H](CCC(=O)O)C(=O)N[C@@H](CCCNC(=N)N)C(=O)N[C@H](C(=O)N[C@@H](CCCCN)C(=O)O)C(C)C [Peptide P4] (H-MLNERVK-OH) |  |
